In ChEMBL document CHEMBL4052790, “Identification of a Novel TRPM8 Agonist from Nutmeg: A Promising Cooling Compound” (ACS Med Chem Lett, 2017):
Active and inactive are the calls of the source. No cut-off for these calls is given here.

How the values were obtained:
[1] = biological target: Transient receptor potential cation channel subfamily A member 1 (Homo sapiens, UniProt O75762); experiment: Agonist activity at recombinant human TRPA1 expressed in HEK293 cells assessed as increase in intracellular Ca2+ level pre-incubated for 5 mins by Fluo4-AM dye-based fluorescence assay; assay type: cell-based
Transient receptor potential cation channel subfamily A member 1, sequence (O75762 whole entry): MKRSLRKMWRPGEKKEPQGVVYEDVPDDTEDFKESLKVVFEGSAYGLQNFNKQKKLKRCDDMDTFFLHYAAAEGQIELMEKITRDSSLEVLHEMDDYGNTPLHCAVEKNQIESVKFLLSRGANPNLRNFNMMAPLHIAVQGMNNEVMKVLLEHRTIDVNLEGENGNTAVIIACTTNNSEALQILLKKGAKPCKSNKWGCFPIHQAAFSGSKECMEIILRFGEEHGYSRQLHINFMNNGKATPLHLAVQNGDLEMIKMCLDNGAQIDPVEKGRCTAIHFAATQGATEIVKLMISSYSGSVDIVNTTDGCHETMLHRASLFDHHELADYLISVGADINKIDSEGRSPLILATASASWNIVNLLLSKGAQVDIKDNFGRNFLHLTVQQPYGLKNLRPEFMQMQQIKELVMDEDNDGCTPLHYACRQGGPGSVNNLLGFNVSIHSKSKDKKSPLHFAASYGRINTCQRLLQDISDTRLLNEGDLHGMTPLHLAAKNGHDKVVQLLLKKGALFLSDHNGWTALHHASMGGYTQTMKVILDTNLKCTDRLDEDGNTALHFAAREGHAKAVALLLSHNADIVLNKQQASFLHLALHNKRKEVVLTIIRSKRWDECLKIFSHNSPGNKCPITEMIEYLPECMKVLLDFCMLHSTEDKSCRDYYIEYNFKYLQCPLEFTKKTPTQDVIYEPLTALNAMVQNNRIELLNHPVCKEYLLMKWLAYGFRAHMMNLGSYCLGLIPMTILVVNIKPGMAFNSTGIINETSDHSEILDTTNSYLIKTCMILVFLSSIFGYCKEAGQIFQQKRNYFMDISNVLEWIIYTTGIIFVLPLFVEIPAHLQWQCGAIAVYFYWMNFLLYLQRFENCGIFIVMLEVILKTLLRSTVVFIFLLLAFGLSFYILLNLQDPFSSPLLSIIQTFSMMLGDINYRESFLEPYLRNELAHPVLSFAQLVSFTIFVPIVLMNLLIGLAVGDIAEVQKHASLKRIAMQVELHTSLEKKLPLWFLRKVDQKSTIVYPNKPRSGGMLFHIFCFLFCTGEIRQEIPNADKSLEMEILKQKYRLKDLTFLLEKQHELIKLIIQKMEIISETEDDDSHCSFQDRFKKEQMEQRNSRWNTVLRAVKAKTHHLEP

Homo sapiens [2] = species: Homo sapiens; experiment: Induction of cooling effect in human at 0.02% measured immediately after washing by simple mouth washing method; assay type: functional
[3] = biological target: T1, Transient receptor potential cation channel subfamily M member 8 (Homo sapiens, UniProt Q7Z2W7); experiment: Agonist activity at full length recombinant human TRPM8 expressed in HEK293 cells assessed as increase in intracellular Ca2+ level pre-incubated for 5 mins by Fluo4-AM dye-based fluorescence assay; assay type: cell-based
Target sequence in this assay (Q7Z2W7 whole entry): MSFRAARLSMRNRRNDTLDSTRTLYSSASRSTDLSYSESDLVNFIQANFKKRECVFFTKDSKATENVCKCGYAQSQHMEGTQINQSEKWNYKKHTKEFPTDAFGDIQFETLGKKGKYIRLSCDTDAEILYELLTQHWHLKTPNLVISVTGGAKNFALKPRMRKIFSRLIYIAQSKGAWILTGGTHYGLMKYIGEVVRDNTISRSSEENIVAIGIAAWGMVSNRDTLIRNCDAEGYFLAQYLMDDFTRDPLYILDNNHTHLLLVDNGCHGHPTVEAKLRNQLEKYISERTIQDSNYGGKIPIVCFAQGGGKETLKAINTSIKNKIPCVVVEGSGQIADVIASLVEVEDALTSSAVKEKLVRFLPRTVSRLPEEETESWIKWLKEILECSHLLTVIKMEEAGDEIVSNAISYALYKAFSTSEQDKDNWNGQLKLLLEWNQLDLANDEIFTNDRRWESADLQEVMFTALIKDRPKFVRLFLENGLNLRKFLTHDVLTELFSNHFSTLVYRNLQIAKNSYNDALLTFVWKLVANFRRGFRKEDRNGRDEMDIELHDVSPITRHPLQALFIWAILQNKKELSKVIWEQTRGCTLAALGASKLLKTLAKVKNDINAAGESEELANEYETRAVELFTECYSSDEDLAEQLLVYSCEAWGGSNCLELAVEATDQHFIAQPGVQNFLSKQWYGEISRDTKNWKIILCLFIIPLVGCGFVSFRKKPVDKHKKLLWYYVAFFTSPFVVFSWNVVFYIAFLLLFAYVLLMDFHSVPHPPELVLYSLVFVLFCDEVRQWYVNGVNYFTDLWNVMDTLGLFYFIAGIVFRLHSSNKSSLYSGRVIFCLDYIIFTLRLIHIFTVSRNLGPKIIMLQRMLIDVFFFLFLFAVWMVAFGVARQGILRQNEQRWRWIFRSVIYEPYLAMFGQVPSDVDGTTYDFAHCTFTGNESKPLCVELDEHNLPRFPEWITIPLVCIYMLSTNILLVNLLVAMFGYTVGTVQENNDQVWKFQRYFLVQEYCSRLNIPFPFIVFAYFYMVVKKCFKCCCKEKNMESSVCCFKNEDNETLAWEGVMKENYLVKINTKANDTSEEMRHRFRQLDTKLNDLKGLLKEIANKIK

[4] = biological target: T1, Transient receptor potential cation channel subfamily M member 8; experiment: Agonist activity at full length recombinant human TRPM8 expressed in HEK293 cells assessed as additive potentiation of 1 and 3 uM l-menthol-stimulated intracellular Ca2+ level at 0.03 uM by Fluo4-AM dye-based fluorescence assay; assay type: cell-based
Target sequence in this assay (Q7Z2W7 whole entry, looked up): as the sequence (Q7Z2W7 whole entry) above

[5] = biological target: Transient receptor potential cation channel subfamily V member 1 (Homo sapiens) (UniProt Q8NER1); experiment: Agonist activity at recombinant human TRPV1 expressed in HEK293 cells assessed as increase in intracellular Ca2+ level pre-incubated for 5 mins by Fluo4-AM dye-based fluorescence assay; assay type: cell-based
Transient receptor potential cation channel subfamily V member 1 (Homo sapiens), sequence (Q8NER1 whole entry): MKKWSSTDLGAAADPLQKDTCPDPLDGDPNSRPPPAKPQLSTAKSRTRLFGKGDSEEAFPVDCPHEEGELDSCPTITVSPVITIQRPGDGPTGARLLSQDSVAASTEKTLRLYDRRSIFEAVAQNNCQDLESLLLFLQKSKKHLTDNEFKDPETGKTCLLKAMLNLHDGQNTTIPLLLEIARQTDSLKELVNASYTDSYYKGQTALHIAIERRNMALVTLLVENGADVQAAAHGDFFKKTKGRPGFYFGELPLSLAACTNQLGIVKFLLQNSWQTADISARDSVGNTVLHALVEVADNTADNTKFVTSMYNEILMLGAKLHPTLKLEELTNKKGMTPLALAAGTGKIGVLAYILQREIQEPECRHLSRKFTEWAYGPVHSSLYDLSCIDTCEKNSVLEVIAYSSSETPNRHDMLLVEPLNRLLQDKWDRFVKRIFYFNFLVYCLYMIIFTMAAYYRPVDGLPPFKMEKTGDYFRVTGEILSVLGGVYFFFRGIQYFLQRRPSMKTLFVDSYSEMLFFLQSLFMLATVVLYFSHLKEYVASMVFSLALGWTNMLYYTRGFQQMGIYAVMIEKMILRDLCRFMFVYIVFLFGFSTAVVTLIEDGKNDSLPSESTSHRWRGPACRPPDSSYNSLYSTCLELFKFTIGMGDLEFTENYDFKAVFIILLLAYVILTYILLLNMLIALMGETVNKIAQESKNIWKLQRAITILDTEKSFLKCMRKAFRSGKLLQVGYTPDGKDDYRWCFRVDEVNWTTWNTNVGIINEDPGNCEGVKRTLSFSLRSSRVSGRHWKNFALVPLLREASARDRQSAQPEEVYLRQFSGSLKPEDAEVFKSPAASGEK

Homo sapiens [6] = species: Homo sapiens; experiment: Induction of cooling effect in human at 0.02% measured after few mins after washing by simple mouth washing method; assay type: functional
[7] = test system: Transient receptor potential cation channel subfamily M member 8 (Homo sapiens), Q7Z2W7 [Y745H]; experiment: Agonist activity at full length recombinant human TRPM8 Y745H mutant expressed in HEK293 cells at 0.3 to 3 uM by Fluo4-AM dye-based fluorescence assay; assay type: cell-based
Transient receptor potential cation channel subfamily M member 8 (Homo sapiens), Q7Z2W7 [Y745H], sequence (Q7Z2W7 whole entry Y745H): as the sequence (Q7Z2W7 whole entry) above, with Y745H counted along it

[8] = biological target: Transient receptor potential cation channel subfamily V member 4 (Homo sapiens) (UniProt Q9HBA0); experiment: Agonist activity at recombinant human TRPV4 expressed in HEK293 cells assessed as increase in intracellular Ca2+ level pre-incubated for 5 mins by Fluo4-AM dye-based fluorescence assay; assay type: cell-based
Transient receptor potential cation channel subfamily V member 4 (Homo sapiens), sequence (Q9HBA0 whole entry): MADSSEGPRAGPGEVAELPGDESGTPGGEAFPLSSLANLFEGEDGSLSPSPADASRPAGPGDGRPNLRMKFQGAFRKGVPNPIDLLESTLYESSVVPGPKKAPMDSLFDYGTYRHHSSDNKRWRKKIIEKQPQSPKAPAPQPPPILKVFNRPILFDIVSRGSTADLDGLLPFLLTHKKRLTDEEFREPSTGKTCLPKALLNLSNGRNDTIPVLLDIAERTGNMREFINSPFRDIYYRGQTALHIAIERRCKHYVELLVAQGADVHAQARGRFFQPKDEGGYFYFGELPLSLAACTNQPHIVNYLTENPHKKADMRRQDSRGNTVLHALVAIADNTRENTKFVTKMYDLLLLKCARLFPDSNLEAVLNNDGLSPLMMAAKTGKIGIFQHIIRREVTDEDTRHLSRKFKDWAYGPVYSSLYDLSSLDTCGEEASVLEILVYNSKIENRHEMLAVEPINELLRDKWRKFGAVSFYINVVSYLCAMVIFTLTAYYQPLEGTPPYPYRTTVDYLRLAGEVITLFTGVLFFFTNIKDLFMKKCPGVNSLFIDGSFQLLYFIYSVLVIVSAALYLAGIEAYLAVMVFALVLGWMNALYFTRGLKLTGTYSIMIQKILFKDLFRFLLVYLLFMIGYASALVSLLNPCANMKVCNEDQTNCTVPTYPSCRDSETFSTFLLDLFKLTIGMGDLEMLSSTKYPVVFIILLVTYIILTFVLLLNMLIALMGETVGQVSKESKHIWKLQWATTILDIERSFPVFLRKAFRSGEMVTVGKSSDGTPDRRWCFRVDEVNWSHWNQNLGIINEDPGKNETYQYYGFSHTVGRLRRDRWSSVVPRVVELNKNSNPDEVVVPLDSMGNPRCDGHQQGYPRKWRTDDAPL

[9] = biological target: T2, Transient receptor potential cation channel subfamily V member 3 (Homo sapiens) (UniProt Q8NET8); experiment: Agonist activity at recombinant human TRPV3 expressed in HEK293 cells assessed as increase in intracellular Ca2+ level pre-incubated for 5 mins by Fluo4-AM dye-based fluorescence assay; assay type: cell-based
T2 sequence (whole entry): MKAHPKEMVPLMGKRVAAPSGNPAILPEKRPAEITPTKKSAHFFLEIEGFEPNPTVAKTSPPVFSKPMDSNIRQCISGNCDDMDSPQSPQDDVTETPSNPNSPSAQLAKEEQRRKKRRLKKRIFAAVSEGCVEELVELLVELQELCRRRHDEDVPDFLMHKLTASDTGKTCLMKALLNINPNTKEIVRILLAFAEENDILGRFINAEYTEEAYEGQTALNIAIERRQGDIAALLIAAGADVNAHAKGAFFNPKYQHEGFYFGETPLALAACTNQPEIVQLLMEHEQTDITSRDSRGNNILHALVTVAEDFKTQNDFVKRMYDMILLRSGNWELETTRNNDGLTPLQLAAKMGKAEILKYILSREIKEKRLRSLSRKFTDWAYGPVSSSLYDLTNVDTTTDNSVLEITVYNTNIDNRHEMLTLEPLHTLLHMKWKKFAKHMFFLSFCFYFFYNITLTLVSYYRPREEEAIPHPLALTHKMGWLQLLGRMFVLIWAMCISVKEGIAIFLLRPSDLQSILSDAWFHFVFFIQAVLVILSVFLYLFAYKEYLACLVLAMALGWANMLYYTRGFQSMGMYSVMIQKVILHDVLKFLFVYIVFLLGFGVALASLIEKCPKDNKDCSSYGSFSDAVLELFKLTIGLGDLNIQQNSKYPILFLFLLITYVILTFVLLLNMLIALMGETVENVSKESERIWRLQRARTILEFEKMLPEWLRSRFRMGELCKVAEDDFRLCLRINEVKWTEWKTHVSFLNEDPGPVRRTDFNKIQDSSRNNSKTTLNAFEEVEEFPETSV

Row | EC50 [3] [nM] | Compound | further results
1 | – | CC(C)[C@@H]1CC[C@@H](C)C[C@H]1O [LEVOMENTHOL] | EC50 [1]: 96000 nM; Activity (Homo sapiens [2]): Active
2 | 11 | C=CCc1cc(OC)c(OC(C)C(O[C@H]2C[C@@H](C)CC[C@@H]2C(C)C)c2ccc(O)c(OC)c2)c(OC)c1 (some centres not stated) | –
3 | 1150 | C=CCc1cc(OC)c(O[C@H](C)[C@@H](OCC)c2ccc(O)c(OC)c2)c(OC)c1 | –
4 | 583 | C=CCc1cc(OC)c(O[C@H](C)[C@H](OCC)c2ccc(O)c(OC)c2)c(OC)c1 | –
5 | 153 | C=CCc1cc(OC)c(OC(C)C(OCCOCCCC)c2ccc(O)c(OC)c2)c(OC)c1 (configuration not stated) | –
6 | > 10000 | C=CCc1cc(OC)c(O[C@H](C)[C@@H](O)c2ccc(OC)c(OC)c2)c(OC)c1 | –
7 | 3450 | C=CCc1cc(OC)c(OC(C)C(OC)c2ccc(O)c(OC)c2)c(OC)c1 (configuration not stated) | –
8 | 138 | C=CCc1cc(OC)c(OC(C)C(OCC(C)C)c2ccc(O)c(OC)c2)c(OC)c1 (configuration not stated) | –
9 | 82 | C=CCc1cc(OC)c(OC(C)C(OC(C)C)c2ccc(O)c(OC)c2)c(OC)c1 (configuration not stated) | –
10 | 329 | C=CCc1cc(OC)c(OC(C)C(OCCCCCC)c2ccc(O)c(OC)c2)c(OC)c1 (configuration not stated) | –
11 | 332 | C=CCc1cc(OC)c(OC(C)C(OCC)c2ccc(O)c(OC)c2)c(OC)c1 (mixture of isomers) | Activity [4]: Active; Activity [5]: inactive; EC50 [1]: 19100 nM; Activity (Homo sapiens [6]): Active; Activity [7]: Active; Activity [8]: inactive; Activity [9]: inactive
12 | 54 | C=CCc1cc(OC)c(OC(C)C(OC2CCCCC2)c2ccc(O)c(OC)c2)c(OC)c1 (configuration not stated) | –
13 | 1130 | C=CCc1cc(OC)c(O[C@@H](C)[C@H](OCC)c2ccc(O)c(OC)c2)c(OC)c1 | –
14 | > 10000 | C=CCc1cc(OC)c(OC(C)C(O)c2ccc(O)c(OC)c2)c(OC)c1 (racemic) | –
15 | > 10000 | C=CCc1cc(OC)c(O[C@H](C)[C@@H](OC(C)=O)c2ccc(O)c(OC)c2)c(OC)c1 | –
16 | 66 | C=CCc1cc(OC)c(OC(C)C(OCCCCCCCCCC)c2ccc(O)c(OC)c2)c(OC)c1 (configuration not stated) | –
17 | 28 | C=CCc1cc(OC)c(OC(C)C(O[C@@H]2C[C@H](C)CC[C@H]2C(C)C)c2ccc(O)c(OC)c2)c(OC)c1 (some centres not stated) | –
18 | 86 | C=CCc1cc(OC)c(OC(C)C(OCCCCCCCC)c2ccc(O)c(OC)c2)c(OC)c1 (configuration not stated) | –
19 | > 10000 | C=CCc1cc(OC)c(O[C@H](C)[C@@H](OC(C)=O)c2ccc(OC)c(OC)c2)c(OC)c1 | –
